Tests used:
[1] = target: T1, FABP5 (brain, B-FABP or epidermal, E-FABP) (Homo sapiens, UniProt Q01469); assay: fluorescence polarisation competition vs BODIPY C4,C9; assay type: binding
FABP3 (heart, H-FABP) [2] = target: T2, FABP3 (heart, H-FABP) (Homo sapiens, UniProt P05413); assay: as above; assay type: binding
FABP1 (liver, L-FABP) [3] = target: T3, FABP1 (liver, L-FABP) (Homo sapiens, UniProt P07148); assay: as above; assay type: binding
T3 sequence (P07148 1-127): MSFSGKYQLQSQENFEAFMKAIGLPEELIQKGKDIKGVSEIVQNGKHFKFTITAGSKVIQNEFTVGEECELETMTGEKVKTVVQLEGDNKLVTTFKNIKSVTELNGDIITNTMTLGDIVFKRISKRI

GR (α sub-type) = target: T4, GR (α sub-type) (Homo sapiens, UniProt P04150); assay: GRE-SEAP reporter gene assay, COS-7; assay type: cell-based; conditions: 24 h agonist treatment; nominal EC80 concentration from reporter curves
T4 sequence (P04150 1-777): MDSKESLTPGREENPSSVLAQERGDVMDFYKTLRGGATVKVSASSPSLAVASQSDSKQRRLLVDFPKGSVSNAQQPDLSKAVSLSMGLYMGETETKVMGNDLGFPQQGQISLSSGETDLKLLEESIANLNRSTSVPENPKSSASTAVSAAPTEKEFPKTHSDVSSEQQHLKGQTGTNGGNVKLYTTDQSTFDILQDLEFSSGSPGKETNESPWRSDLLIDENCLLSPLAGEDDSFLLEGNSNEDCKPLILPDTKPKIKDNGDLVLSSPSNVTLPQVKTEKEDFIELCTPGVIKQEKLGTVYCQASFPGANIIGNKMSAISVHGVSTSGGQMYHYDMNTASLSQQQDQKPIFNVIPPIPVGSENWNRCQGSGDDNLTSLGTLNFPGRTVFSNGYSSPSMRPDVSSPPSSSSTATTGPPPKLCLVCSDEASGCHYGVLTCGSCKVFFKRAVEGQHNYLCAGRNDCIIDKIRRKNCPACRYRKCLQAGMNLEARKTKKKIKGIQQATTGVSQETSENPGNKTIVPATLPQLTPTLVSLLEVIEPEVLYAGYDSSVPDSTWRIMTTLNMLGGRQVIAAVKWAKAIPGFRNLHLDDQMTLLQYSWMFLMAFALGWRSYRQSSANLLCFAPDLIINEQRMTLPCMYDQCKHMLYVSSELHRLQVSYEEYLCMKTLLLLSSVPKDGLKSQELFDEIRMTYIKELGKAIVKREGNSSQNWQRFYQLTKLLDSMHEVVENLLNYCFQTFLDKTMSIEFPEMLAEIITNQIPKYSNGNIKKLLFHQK

[4] = target: T5, FABP4 (adipocyte, A-FABP) (Homo sapiens, UniProt P15090); assay: fluorescence polarisation competition vs BODIPY C4,C9; assay type: binding
[5] = target: T6, FABP2 (intestine, I-FABP) (Homo sapiens, UniProt P12104); assay: as above; assay type: binding
T6 sequence (P12104 2-132): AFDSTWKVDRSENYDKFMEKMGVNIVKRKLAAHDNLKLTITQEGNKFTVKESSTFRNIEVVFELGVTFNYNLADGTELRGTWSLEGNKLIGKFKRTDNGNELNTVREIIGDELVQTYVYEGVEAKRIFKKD

[6] = target: T5, FABP4 (adipocyte, A-FABP); assay: fluorescence polarisation saturation binding
[7] = target: T1, FABP5 (brain, B-FABP or epidermal, E-FABP); assay: fluorescence polarisation saturation binding
FABP3 (heart, H-FABP) [8] = target: T2, FABP3 (heart, H-FABP); assay: fluorescence polarisation saturation binding
FABP1 (liver, L-FABP) [9] = target: T3, FABP1 (liver, L-FABP); assay: fluorescence polarisation saturation binding
[10] = target: T6, FABP2 (intestine, I-FABP); assay: fluorescence polarisation saturation binding

T1 sequence (Q01469 2-135): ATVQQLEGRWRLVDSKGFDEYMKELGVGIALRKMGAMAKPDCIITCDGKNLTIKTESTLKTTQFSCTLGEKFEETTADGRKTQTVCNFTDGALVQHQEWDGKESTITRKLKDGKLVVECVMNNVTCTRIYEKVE
T2 sequence (P05413 whole entry): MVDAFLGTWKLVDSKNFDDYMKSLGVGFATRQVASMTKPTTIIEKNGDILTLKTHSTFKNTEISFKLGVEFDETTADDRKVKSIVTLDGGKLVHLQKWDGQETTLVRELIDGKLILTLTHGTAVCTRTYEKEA
T5 sequence (P15090 whole entry): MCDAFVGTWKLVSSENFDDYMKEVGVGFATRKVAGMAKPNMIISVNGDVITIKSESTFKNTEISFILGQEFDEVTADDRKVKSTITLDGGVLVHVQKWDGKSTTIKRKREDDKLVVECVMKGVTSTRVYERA

CCCC1O[C@@H]2C[C@H]3[C@@H]4CCC5=CC(=O)C=C[C@]5(C)[C@H]4[C@@H](O)C[C@]3(C)[C@]2(C(=O)CO)O1 (stereo partly drawn) [Budesonide]
Ki [1]: 19.1 µM
Ki (FABP3 (heart, H-FABP) [2]): 0.0575 µM
Ki (FABP1 (liver, L-FABP) [3]): 85.1 µM
EC80 (GR (α sub-type)): ~ 10 μM

C[C@@H]1C[C@H]2[C@@H]3CCC4=CC(=O)C=C[C@]4(C)[C@@]3(F)[C@@H](O)C[C@]2(C)[C@@]1(O)C(=O)CO [Dexamethasone]
Ki (FABP3 (heart, H-FABP) [2]): 5.62 µM
Ki (FABP1 (liver, L-FABP) [3]): 27.5 µM
EC80 (GR (α sub-type)): ~ 10 μM
Ki [4]: 74.1 µM

C[C@H]1C[C@H]2[C@@H]3CCC4=CC(=O)C=C[C@]4(C)[C@@]3(F)[C@@H](O)C[C@]2(C)[C@@]1(O)C(=O)CO [β-methasone]
Ki [5]: 72.4 µM
Ki (FABP1 (liver, L-FABP) [3]): 91.2 µM
EC80 (GR (α sub-type)): ~ 10 μM

C[C@H]1C[C@@H]2[C@H]([C@@H](O)C[C@@]3(C)[C@H]2CC[C@]3(O)C(=O)CO)[C@@]2(C)C=CC(=O)C=C12 [Methylprednisolone]
Ki [5]: 3.39 µM
Ki (FABP3 (heart, H-FABP) [2]): 117 µM
Ki (FABP1 (liver, L-FABP) [3]): 79.4 µM
Ki [4]: 2000 µM

C[C@]12CCC(=O)C=C1CC[C@@H]1[C@@H]2[C@@H](O)C[C@@]2(C)[C@H]1CC[C@]2(O)C(=O)CO [Hydrocortisone]
Ki [1]: 21.9 µM
Ki (FABP3 (heart, H-FABP) [2]): 7.76 µM
Ki (FABP1 (liver, L-FABP) [3]): 38.9 µM
EC80 (GR (α sub-type)): ~ 1 mM
Ki [4]: 120 µM

C[C@]12CCC(=O)C=C1CC[C@@H]1[C@@H]2C(=O)C[C@@]2(C)[C@H]1CC[C@]2(O)C(=O)CO [Cortisone]
Ki [1]: 129 µM
Ki [5]: 16.6 µM
Ki (FABP3 (heart, H-FABP) [2]): 107 µM
Ki (FABP1 (liver, L-FABP) [3]): 302 µM
Ki [4]: 977 µM

CCCCc1ccc2n1[B-](F)(F)[N+]1=C(CCCCCCCCC(=O)O)C=CC1=C2 [BODIPY 500/510 C4, C9]
Kd [6]: 0.42 µM
Kd [7]: 0.16 µM
Kd (FABP3 (heart, H-FABP) [8]): 0.02 µM
Kd (FABP1 (liver, L-FABP) [9]): 0.09 µM
Kd [10]: 4.1 µM

C[C@]12C=CC(=O)C=C1CC[C@@H]1[C@@H]2C(=O)C[C@@]2(C)[C@H]1CC[C@]2(O)C(=O)CO [Prednisone]
Ki [1]: 9.33 µM
Ki (FABP3 (heart, H-FABP) [2]): 7.59 µM
Ki (FABP1 (liver, L-FABP) [3]): 288 µM
Ki [4]: 35.5 µM

C[C@]12C=CC(=O)C=C1CC[C@@H]1[C@@H]2[C@@H](O)C[C@@]2(C)[C@H]1CC[C@]2(O)C(=O)CO [Prednisolone]
Ki [5]: 11 µM
Ki (FABP3 (heart, H-FABP) [2]): 70.8 µM
Ki (FABP1 (liver, L-FABP) [3]): 47.9 µM
EC80 (GR (α sub-type)): ~ 100 μM
Ki [4]: 1150 µM
